Row | Compound | melting point [°C]
1 | CCOC(=O)C(=O)CC(=O)c1cn(Cc2ccc(F)cc2)c2cc(Cl)c(Cl)cc2c1=O | 144 to 145
2 | COc1ccc2c(c1)C(=O)N(CCN(C)CCN1C(=O)c3cc(OC)ccc3C(C)(C)C1=O)C(=O)C2(C)C | 150 to 151
3 | Clc1ccc(-c2nnc(NCCN3CCCCC3)c(Cc3ccccc3)n2)cc1 | 196
4 | CCCCCCCCC1(CCCCCCCC)c2cc(O)ccc2-c2ccc(Br)cc21 | 110
5 | COc1ccc(CCOc2ccc(NC(=O)N(C)OC)cc2)cc1 | 100 to 101
6 | COCCn1cc(C(=O)O)c2c(Cl)cccc21 | 142 to 145
7 | CCC(=O)NCC[C@@H]1CCc2cc(Br)c3c(c21)CCO3 | 129 to 131
8 | N#Cc1ccnc(OCc2nc3cc(Cl)ccc3s2)c1 | 224 to 227
9 | COC(=O)c1c(C)sc2cc(CCl)ccc12 | 78 to 79
10 | COc1ccc(S(=O)(=O)n2ccc3ccnc(Nc4ccc(F)cc4)c32)cc1 | 125 to 127
11 | Cc1cc(C2=C(C=CC3CC(O)CC(=O)O3)C(C)(C)CC(N3C(=O)CCC3=O)C2)ccc1F (stereo unspecified) | 71 to 77
12 | N#Cc1nn(-c2c(Cl)cc(C(F)(F)F)cc2Cl)cc1-c1occc1Br | 99 to 101
13 | N#CC1c2cc(OCc3ccccc3)cc(OCc3ccccc3)c2C=CN1C(=O)c1ccccc1 (stereo unspecified) | 123 to 125
14 | Cc1cc(-c2ccc(C(F)(F)F)cc2)cc(-c2cccc(-c3cccc(N)c3)n2)n1 | 167
15 | COC(=O)CCc1cc2cc(Cl)ccc2n1S(=O)(=O)c1ccc(Cl)cc1 | 89 to 92
16 | Nc1ccccc1CC1NCCc2ccccc21 (stereo unspecified) | 69 to 71
17 | CC(C(=O)N(c1ccccc1)c1ccccc1)N1C(=O)c2ccccc2C1=O (racemic) | 89
18 | CCCc1nc2c(N)nc3ccccc3c2n1CCCC(N)=O | 249 to 251
19 | CNC(=O)c1c(-c2ccccc2)noc1CC(O)c1ccccc1 (stereo unspecified) | 183 to 184
20 | COc1cc(C2CC(=O)NC(=O)C2)cc2c(C)c(C)oc12 | 220 to 222
21 | Cc1nc2c([nH]c(=O)c3ccccc32)s1 | 310 to 320
22 | Oc1cccc(-c2noc3ncccc23)c1 | 175 to 178
23 | CCCCOc1ccc2cc(C(C)NC(N)=O)ccc2c1 (stereo unspecified) | 135 to 137
24 | O=C1C(O)=C(c2ccccc2)C(=O)C(O)=C1/C=C/c1ccccc1 | 259 to 260
25 | CC(=O)c1ccc(-c2ccc(Cl)cc2)c(N)c1 | 139 to 140
26 | COC(=O)C(O)c1cc(F)cc(F)c1 (stereo unspecified) | 61.8

Row | Compound | melting point [°C]
27 | Cc1c(F)c(N2CCC(n3ccnn3)C2)c(F)c2c1c(=O)c(C(=O)O)cn2C1CC1 (stereo unspecified) | 228 to 230
28 | O=CNc1ccc(SC(CCc2ccc(Cl)cc2)Cn2ccnc2)cc1 (stereo unspecified) | 91 to 94
29 | CN(CCCCOc1ccc(C=C2SC(=O)NC2=O)cc1)c1nc2ccccc2o1 | 168
30 | O=C(NC(=O)N1C(=O)Cc2ccccc21)C1CCCCC1 | 144 to 146
31 | COc1ccc(C(=O)c2ccccc2F)c(O)c1Cl | 132 to 133
32 | CNC(=O)OCCN1C(=O)c2ccccc2C1=O | 142 to 145
33 | CC(C)NC(=O)COC1c2ccccc2C(=O)N1c1ccc2ccc(Cl)nc2n1 (stereo unspecified) | 188
34 | CC(=O)c1cc(F)c(OCCOc2ccc3ccccc3c2)c(F)c1 | 108 to 110
35 | CC(C)(C)c1ncc(C=O)cn1 | 82 to 83
36 | CN1C2=C(CSC2)C(=O)Nc2cccnc21 | 240 to 241
37 | CCOC(=O)N1CCOC(CC23CC(c4ccccc42)c2ccccc23)C1 (stereo unspecified) | 143 to 144
38 | COc1cc(OC)c2c3c(oc2c1)CC(C(=O)O)CC3 (stereo unspecified) | 194 to 196
39 | O=C1NCC(Cc2ccc3c(c2)OCO3)O1 (stereo unspecified) | 98.5 to 100
40 | Cc1nc(C)c(C=O)c(N)n1 | 148 to 156
41 | CCOc1c(C23OCC(C)(C)C2(C(C)(C)C)OO3)sc2ccc(O[Si](C)(C)C(C)(C)C)cc12 (stereo unspecified) | 106 to 107
42 | CS(=O)(=O)Nc1ccc2c(c1)C(=NO)CC1(CCN(CCc3ccccc3)CC1)O2 | 95 to 99
43 | CC(C)c1cc(C(C)C)c(CCC(=O)O)c(C(C)C)c1 | 194 to 196
44 | COC(=O)C1=C(CCc2ccccc2OC)NC(CC(=O)N2CCN(CC(=O)NC(C)C)CC2)=C(C(=O)OC)C1c1c(Cl)cccc1Cl (stereo unspecified) | 161 to 163
45 | CON=C(C(=O)O)c1nsc(NC(=O)OCc2ccccc2)n1 | 138 to 142
46 | CC1N=C(c2ccccc2F)c2cc(C(C)N)ccc2N(C)C1=O (stereo unspecified) | 48 to 50
47 | O=C1COc2cc(Oc3ccc(O)cc3)ccc2N1 | 250 to 251
48 | COc1ccc(Cc2ccc3nc(N)nc(N)c3c2)cc1OC | 215 to 217
49 | COc1ccc2ccc(C(=O)CNC(=O)Cc3ccccc3)cc2c1 | 148 to 150
50 | CCc1cn(-c2ncccn2)c2c1C(=O)CC(C)(C)C2 | 111 to 114
51 | CCOC(=O)c1ncc2[nH]c3cccc(OC4CCC4)c3c2c1COC | 196 to 197
